Here are results for 22 molecules from patent US20200016136A1 (VIIV HEALTHCARE UK (NO. 5) LIMITED, priority 2017, published 2020).

This assay deals with NL-RLuc virus (recombinant NL4-3 HIV with Renilla Luciferase gene). Nature of the assay: Inhibition of HIV replication (NL-RLuc virus in MT-2 cells, luciferase readout). The conditions noted are these: MT2, 120 h. Format: cell-based, Human immunodeficiency virus (HIV). The procedure, abridged: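 EC50 derived via median effect equation from at least 2 experiments, using luciferase expression as virus-growth readout. Replication-competent NL-RLuc reporter virus (nef partly replaced by Renilla luciferase) infected MT-2 cells with serial compound dilutions; 5-day incubation in RPMI 1640 plus 10% FBS.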
For `CCC(C)(C)O[C@H](C(=O)O)c1c(C)ncc(-c2ccc3c(c2)CCN(Cc2ccc(F)cc2C)C3)c1N1CCC(C)(C)CC1` [Example 54, (2S)-2-[4-(4,4-Dimethylpiperidin-1-yl)-5-{2-[(4-fluoro-2-methylphenyl)methyl]-1,2,3,4-tetrahydroisoquinolin-6-yl}-2-methylpyridin-3-yl]-2-[(2-methylbutan-2-yl)oxy]acetic Acid], the EC50 amounted to 12 nM. Next, `Cc1nc(C)c([C@H](OC(C)(C)C)C(=O)O)c(N2CCC(C)(C)CC2)c1-c1ccc2c(c1)CCN(c1cc(N3CCOCC3)cnn1)C2` [Example 55, (S)-2-(tert-Butoxy)-2-(4-(4,4-dimethylpiperidin-1-yl)-2,6-dimethyl-5-(2-(5-morpholinopyridazin-3-yl)-1,2,3,4-tetrahydroisoquinolin-6-yl)pyridin-3-yl)acetic Acid]: 21 nM.

As to `Cc1nc(N2CCOCC2)nc(N2CCc3cc(-c4c(C)nc(C)c([C@H](OC(C)(C)C)C(=O)O)c4N4CCC(C)(C)CC4)ccc3C2)n1` [Example 56, (S)-2-(tert-Butoxy)-2-(4-(4,4-dimethylpiperidin-1-yl)-2,6-dimethyl-5-(2-(4-methyl-6-morpholino-1,3,5-triazin-2-yl)-1,2,3,4-tetrahydroisoquinolin-6-yl)pyridin-3-yl)acetic Acid], the concentration giving a half-maximal response (EC50) came to 1 nM.

For the molecule `Cc1nc(C)c([C@H](OC(C)(C)C)C(=O)O)c(N2CCC(C)(C)CC2)c1-c1ccc2c(c1)CCN(c1ccnc(N3CCOCC3)n1)C2` [Example 57, (S)-2-(tert-Butoxy)-2-(4-(4,4-dimethylpiperidin-1-yl)-2,6-dimethyl-5-(2-(2-morpholinopyrimidin-4-yl)-1,2,3,4-tetrahydroisoquinolin-6-yl)pyridin-3-yl)acetic Acid], the EC50 is 0.5 nM. Turning to `Cc1nc(C)c([C@H](OC(C)(C)C)C(=O)O)c(N2CCC(C)(C)CC2)c1-c1ccc2c(c1)CCN(c1nc(Cl)nc(N3CCOCC3)n1)C2` [Example 58, (S)-2-(tert-Butoxy)-2-(5-(2-(4-chloro-6-morpholino-1,3,5-triazin-2-yl)-1,2,3,4-tetrahydroisoquinolin-6-yl)-4-(4,4-dimethylpiperidin-1-yl)-2,6-dimethylpyridin-3-yl)acetic Acid], the EC50 is 8 nM.

Take `CCOc1nc(N2CCOCC2)nc(N2CCc3cc(-c4c(C)nc(C)c([C@H](OC(C)(C)C)C(=O)O)c4N4CCC(C)(C)CC4)ccc3C2)n1` [Example 59, (S)-2-(tert-Butoxy)-2-(4-(4,4-dimethylpiperidin-1-yl)-5-(2-(4-ethoxy-6-morpholino-1,3,5-triazin-2-yl)-1,2,3,4-tetrahydroisoquinolin-6-yl)-2,6-dimethylpyridin-3-yl)acetic Acid]: the EC50 came to 3 nM. Regarding `Cc1nc(C)c([C@H](OC(C)(C)C)C(=O)O)c(N2CCC(C)(C)CC2)c1-c1ccc2c(c1)CCN(c1ncnc(N3CCOCC3)n1)C2` [Example 60, (S)-2-(tert-Butoxy)-2-(4-(4,4-dimethylpiperidin-1-yl)-2,6-dimethyl-5-(2-(4-morpholino-1,3,5-triazin-2-yl)-1,2,3,4-tetrahydroisoquinolin-6-yl)pyridin-3-yl)acetic Acid], the EC50 is 0.6 nM.

`Cc1nc(C)c([C@H](OC(C)(C)C)C(=O)O)c(N2CCC(C)(C)CC2)c1-c1ccc2c(c1)CCN(c1ncnc(N3CCC(O)CC3)n1)C2` [Example 61, (S)-2-(tert-Butoxy)-2-(4-(4,4-dimethylpiperidin-1-yl)-5-(2-(4-(4-hydroxypiperidin-1-yl)-1,3,5-triazin-2-yl)-1,2,3,4-tetrahydroisoquinolin-6-yl)-2,6-dimethylpyridin-3-yl)acetic Acid]: the EC50 amounted to 2 nM.

As to `Cc1nc(C)c([C@H](OC(C)(C)C)C(=O)O)c(N2CCC(C)(C)CC2)c1-c1ccc2c(c1)CCN(c1ncnc(N3CCC(CO)CC3)n1)C2` [Example 62, (S)-2-(tert-Butoxy)-2-(4-(4,4-dimethylpiperidin-1-yl)-5-(2-(4-(4-(hydroxymethyl)piperidin-1-yl)-1,3,5-triazin-2-yl)-1,2,3,4-tetrahydroisoquinolin-6-yl)-2,6-dimethylpyridin-3-yl)acetic Acid], the EC50 came out at 3 nM. For the molecule `Cc1nc(C)c([C@H](OC(C)(C)C)C(=O)O)c(N2CCC(C)(C)CC2)c1-c1ccc2c(c1)CCN(c1ncnc(N3CCC(CCO)CC3)n1)C2` [Example 63, (S)-2-(tert-Butoxy)-2-(4-(4,4-dimethylpiperidin-1-yl)-5-(2-(4-(4-(2-hydroxyethyl)piperidin-1-yl)-1,3,5-triazin-2-yl)-1,2,3,4-tetrahydroisoquinolin-6-yl)-2,6-dimethylpyridin-3-yl)acetic Acid], the 50% effective concentration (EC50) turned out to be 4 nM. Next, `Cc1nc(N2CCOCC2)cc(N2CCc3cc(-c4c(C)nc(C)c([C@H](OC(C)(C)C)C(=O)O)c4N4CCC(C)(C)CC4)ccc3C2)n1` [Example 64, (S)-2-(tert-Butoxy)-2-(4-(4,4-dimethylpiperidin-1-yl)-2,6-dimethyl-5-(2-(2-methyl-6-morpholinopyrimidin-4-yl)-1,2,3,4-tetrahydroisoquinolin-6-yl)pyridin-3-yl)acetic Acid]: 8 nM; `CCOc1cc(N2CCc3cc(-c4c(C)nc(C)c([C@H](OC(C)(C)C)C(=O)O)c4N4CCC(C)(C)CC4)ccc3C2)nc(C)n1` [Example 65, (S)-2-(tert-Butoxy)-2-(4-(4,4-dimethylpiperidin-1-yl)-5-(2-(6-ethoxy-2-methylpyrimidin-4-yl)-1,2,3,4-tetrahydroisoquinolin-6-yl)-2,6-dimethylpyridin-3-yl)acetic Acid]: 19 nM; `Cc1nc(C)c([C@H](OC(C)(C)C)C(=O)O)c(N2CCC(C)(C)CC2)c1-c1ccc2c(c1)CCN(c1cccc(N3CCOCC3)n1)C2` [Example 66, (S)-2-(tert-Butoxy)-2-(4-(4,4-dimethylpiperidin-1-yl)-2,6-dimethyl-5-(2-(6-morpholinopyridin-2-yl)-1,2,3,4-tetrahydroisoquinolin-6-yl)pyridin-3-yl)acetic Acid]: 13 nM.

As for `COc1c(N2CCOCC2)ncnc1N1CCc2cc(-c3c(C)nc(C)c([C@H](OC(C)(C)C)C(=O)O)c3N3CCC(C)(C)CC3)ccc2C1` [Example 67, (S)-2-(tert-Butoxy)-2-(4-(4,4-dimethylpiperidin-1-yl)-5-(2-(5-methoxy-6-morpholinopyrimidin-4-yl)-1,2,3,4-tetrahydroisoquinolin-6-yl)-2,6-dimethylpyridin-3-yl)acetic Acid], the EC50 worked out at 2 nM.

For `Cc1nc(C)c([C@H](OC(C)(C)C)C(=O)O)c(N2CCC(C)(C)CC2)c1-c1ccc2c(c1)CCN(c1ncnc(N3C[C@@H](C)O[C@@H](C)C3)n1)C2` [Example 68, (S)-2-(tert-Butoxy)-2-(5-(2-(4-((2R,6S)-2,6-dimethylmorpholino)-1,3,5-triazin-2-yl)-1,2,3,4-tetrahydroisoquinolin-6-yl)-4-(4,4-dimethylpiperidin-1-yl)-2,6-dimethylpyridin-3-yl)acetic Acid], the half-maximal effective concentration (EC50) was 1 nM. As to `Cc1nc(C)c([C@H](OC(C)(C)C)C(=O)O)c(N2CCC(C)(C)CC2)c1-c1ccc2c(c1)CCN(c1nccc(N3CCN(CCO)CC3)n1)C2` [Example 69, (S)-2-(tert-Butoxy)-2-(4-(4,4-dimethylpiperidin-1-yl)-5-(2-(4-(4-(2-hydroxyethyl)piperazin-1-yl)pyrimidin-2-yl)-1,2,3,4-tetrahydroisoquinolin-6-yl)-2,6-dimethylpyridin-3-yl)acetic Acid], the 50% effective concentration (EC50) amounted to 18 nM. Next, `Cc1nc(C)c([C@H](OC(C)(C)C)C(=O)O)c(N2CCC(C)(C)CC2)c1-c1ccc2c(c1)CCN(c1nccc(N3CCC(C(C)(C)O)CC3)n1)C2` [Example 70, (S)-2-(tert-Butoxy)-2-(4-(4,4-dimethylpiperidin-1-yl)-5-(2-(4-(4-(2-hydroxypropan-2-yl)piperidin-1-yl)pyrimidin-2-yl)-1,2,3,4-tetrahydroisoquinolin-6-yl)-2,6-dimethylpyridin-3-yl)acetic Acid]: 5 nM. Take `Cc1nc(C)c([C@H](OC(C)(C)C)C(=O)O)c(N2CCC(C)(C)CC2)c1-c1ccc2c(c1)CCN(c1ccnc(N3CCC(C(C)(C)O)CC3)n1)C2` [Example 71, (S)-2-(tert-Butoxy)-2-(4-(4,4-dimethylpiperidin-1-yl)-5-(2-(2-(4-(2-hydroxypropan-2-yl)piperidin-1-yl)pyrimidin-4-yl)-1,2,3,4-tetrahydroisoquinolin-6-yl)-2,6-dimethylpyridin-3-yl)acetic Acid]: the EC50 was found to be 4 nM. Next, `Cc1nc(C)c([C@H](OC(C)(C)C)C(=O)O)c(N2CCC(C)(C)CC2)c1-c1ccc2c(c1)CCN(c1ncc(F)cc1F)C2` [Example 72, (S)-2-(tert-Butoxy)-2-(5-(2-(3,5-difluoropyridin-2-yl)-1,2,3,4-tetrahydroisoquinolin-6-yl)-4-(4,4-dimethylpiperidin-1-yl)-2,6-dimethylpyridin-3-yl)acetic Acid]: 8 nM; `Cc1nc(C)c([C@H](OC(C)(C)C)C(=O)O)c(N2CCC(C)(C)CC2)c1-c1ccc2c(c1)CCN(c1cnnc(N3CCOCC3)c1)C2` [Example 73, (S)-2-(tert-Butoxy)-2-(4-(4,4-dimethylpiperidin-1-yl)-2,6-dimethyl-5-(2-(6-morpholinopyridazin-4-yl)-1,2,3,4-tetrahydroisoquinolin-6-yl)pyridin-3-yl)acetic Acid]: 69 nM; `Cc1nc(C)c([C@H](OC(C)(C)C)C(=O)O)c(N2CCC(C)(C)CC2)c1-c1ccc2c(c1)CCN(c1cncc(N3CCOCC3)n1)C2` [Example 74, (S)-2-(tert-Butoxy)-2-(4-(4,4-dimethylpiperidin-1-yl)-2,6-dimethyl-5-(2-(6-morpholinopyrazin-2-yl)-1,2,3,4-tetrahydroisoquinolin-6-yl)pyridin-3-yl)acetic Acid]: 1 nM. Next, `Cc1nc(C)c([C@H](OC(C)(C)C)C(=O)O)c(N2CCC(C)(C)CC2)c1-c1ccc2c(c1)CCN(c1ccnc(N3CCC(O)CC3)n1)C2` [Example 75, (S)-2-(tert-Butoxy)-2-(4-(4,4-dimethylpiperidin-1-yl)-5-(2-(2-(4-hydroxypiperidin-1-yl)pyrimidin-4-yl)-1,2,3,4-tetrahydroisoquinolin-6-yl)-2,6-dimethylpyridin-3-yl)acetic Acid]: 3 nM.
